In patent US4395417A, “Antihyperlipidemic compositions” (Research Corporation, priority 1980, dated 1983):
Read-outs that look alike come from different tables or passages of the source.

Experiments:
serum cholesterol = experiment: Serum cholesterol of male CF1 mice (Liebermann-Burchard reaction); format: in vivo; conditions: Mus musculus, ip
Method: (§1) For hypolipidemic activity, the compounds were tested at 20 mg/kg/day administered I.P. to male CF1 mice (~30 g). On days 9 and 16 blood was collected by tail-vein bleeding. Serum cholesterol was determined by the Liebermann-Burchard reaction. Serum triglyceride levels were determined using the Hycel commercial kits on a separate group of mice, which were bled on day 14.

serum triglyceride = experiment: Serum triglyceride levels of male mice (Hycel commercial kits); format: in vivo, male CF1 mice; conditions: Mus musculus, ip, 336 h
Method: as §1

Acetyl-CoA Synthetase = target: T1, Acetyl-CoA Synthetase (Mus musculus, UniProt Q9QXG4); experiment: In vitro acetyl coenzyme A synthetase activity (method of Goodridge); format: biochemical, mice; conditions: for Acetyl-CoA Synthetase: Table 2, N = 6, x ± S.D., control 28.5 mg acetyl CoA formed/gm wet tissue/30 min.; for in vitro AcCoA synthetase: Table 3, N = 6, control 10.8 mg/g wet tissue
T1 construct: gm wet tissue/30 min; from tissue

Citrate Lyase = target: T2, Citrate Lyase (Mus musculus, UniProt Q91V92); experiment: In vitro effect on citrate lyase; format: biochemical; conditions: Table 2, N = 6, x ± S.D., control 30.5 mg of citrate hydrolyzed/gm wet tissue/30 min.
T2 construct: 30.5 mg of citrate hydrolyzed/gm wet tissue/30 min; from tissue
T2 sequence (Q91V92 1-1091): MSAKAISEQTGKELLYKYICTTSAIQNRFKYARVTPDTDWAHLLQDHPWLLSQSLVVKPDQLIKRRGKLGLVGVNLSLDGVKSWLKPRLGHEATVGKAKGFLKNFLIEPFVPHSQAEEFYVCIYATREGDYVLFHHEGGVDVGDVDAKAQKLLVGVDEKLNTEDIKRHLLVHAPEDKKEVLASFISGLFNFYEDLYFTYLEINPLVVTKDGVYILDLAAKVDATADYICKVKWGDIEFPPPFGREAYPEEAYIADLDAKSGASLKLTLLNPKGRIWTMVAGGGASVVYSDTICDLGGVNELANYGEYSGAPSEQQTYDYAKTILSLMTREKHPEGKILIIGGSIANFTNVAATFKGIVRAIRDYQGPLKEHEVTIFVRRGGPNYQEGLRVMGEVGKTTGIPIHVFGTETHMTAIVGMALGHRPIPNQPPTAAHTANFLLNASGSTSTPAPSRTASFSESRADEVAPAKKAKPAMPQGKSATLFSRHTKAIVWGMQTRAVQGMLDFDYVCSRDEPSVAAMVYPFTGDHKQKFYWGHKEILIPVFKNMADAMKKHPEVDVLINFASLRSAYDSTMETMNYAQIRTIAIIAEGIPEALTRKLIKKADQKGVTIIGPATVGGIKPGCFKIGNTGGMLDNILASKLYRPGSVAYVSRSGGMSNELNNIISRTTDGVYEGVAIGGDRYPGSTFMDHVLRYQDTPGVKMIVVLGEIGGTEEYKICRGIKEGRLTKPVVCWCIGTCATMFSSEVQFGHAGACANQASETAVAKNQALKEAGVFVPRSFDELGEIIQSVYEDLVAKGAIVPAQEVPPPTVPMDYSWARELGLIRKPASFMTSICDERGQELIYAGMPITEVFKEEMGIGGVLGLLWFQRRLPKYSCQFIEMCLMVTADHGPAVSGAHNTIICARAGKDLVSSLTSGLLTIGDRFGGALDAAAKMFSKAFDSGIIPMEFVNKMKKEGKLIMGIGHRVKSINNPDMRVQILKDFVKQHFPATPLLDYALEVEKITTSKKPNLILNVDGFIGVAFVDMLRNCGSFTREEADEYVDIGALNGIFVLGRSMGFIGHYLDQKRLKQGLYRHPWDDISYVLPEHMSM

Acetyl-CoA Carboxylase = target: T3, Acetyl-CoA Carboxylase (Mus musculus, UniProt Q5SWU9); experiment: In vitro acetyl coenzyme A carboxylase activity (method of Greenspan and Lowenstein); format: biochemical; conditions: Table 2, N = 6, x ± S.D., control 32,010 dpm/gm wet tissue/30 min.
T3 construct: 32,010 dpm/gm wet tissue/30 min; from tissue

Fatty Acid Synthetase = target: T4, Fatty Acid Synthetase (Mus musculus, UniProt P19096); experiment: In vitro effect on fatty acid synthetase; format: biochemical; conditions: Table 2, N = 6, x ± S.D.
T4 construct: gm wet tissue/30 min; from tissue

[1] = 216 h, Table 1, 20 mg/kg/day I.P., male CF1 mice, N = 6, 9th day, control value 118 mg %, read-out: Serum Cholesterol, 9th day
[2] = 384 h, Table 1, 20 mg/kg/day I.P., male CF1 mice, N = 6, 16th day, control value 122 mg %, read-out: Serum Cholesterol, 16th day
[3] = Table 1, 20 mg/kg/day I.P., male mice, N = 6, 14th day, control value 137 mg %, read-out: Serum Triglyceride, 14th day
[4] = 216 h, Table 3, mice, N = 6, 9th day, control 115 mg %, read-out: serum cholesterol, 9th day
[5] = 384 h, Table 3, mice, N = 6, 16th day, control 118 mg %, read-out: serum cholesterol, 16th day
[6] = Table 3, mice, N = 6, control 138 mg %, read-out: serum triglycerides

T4 sequence (P19096 whole entry): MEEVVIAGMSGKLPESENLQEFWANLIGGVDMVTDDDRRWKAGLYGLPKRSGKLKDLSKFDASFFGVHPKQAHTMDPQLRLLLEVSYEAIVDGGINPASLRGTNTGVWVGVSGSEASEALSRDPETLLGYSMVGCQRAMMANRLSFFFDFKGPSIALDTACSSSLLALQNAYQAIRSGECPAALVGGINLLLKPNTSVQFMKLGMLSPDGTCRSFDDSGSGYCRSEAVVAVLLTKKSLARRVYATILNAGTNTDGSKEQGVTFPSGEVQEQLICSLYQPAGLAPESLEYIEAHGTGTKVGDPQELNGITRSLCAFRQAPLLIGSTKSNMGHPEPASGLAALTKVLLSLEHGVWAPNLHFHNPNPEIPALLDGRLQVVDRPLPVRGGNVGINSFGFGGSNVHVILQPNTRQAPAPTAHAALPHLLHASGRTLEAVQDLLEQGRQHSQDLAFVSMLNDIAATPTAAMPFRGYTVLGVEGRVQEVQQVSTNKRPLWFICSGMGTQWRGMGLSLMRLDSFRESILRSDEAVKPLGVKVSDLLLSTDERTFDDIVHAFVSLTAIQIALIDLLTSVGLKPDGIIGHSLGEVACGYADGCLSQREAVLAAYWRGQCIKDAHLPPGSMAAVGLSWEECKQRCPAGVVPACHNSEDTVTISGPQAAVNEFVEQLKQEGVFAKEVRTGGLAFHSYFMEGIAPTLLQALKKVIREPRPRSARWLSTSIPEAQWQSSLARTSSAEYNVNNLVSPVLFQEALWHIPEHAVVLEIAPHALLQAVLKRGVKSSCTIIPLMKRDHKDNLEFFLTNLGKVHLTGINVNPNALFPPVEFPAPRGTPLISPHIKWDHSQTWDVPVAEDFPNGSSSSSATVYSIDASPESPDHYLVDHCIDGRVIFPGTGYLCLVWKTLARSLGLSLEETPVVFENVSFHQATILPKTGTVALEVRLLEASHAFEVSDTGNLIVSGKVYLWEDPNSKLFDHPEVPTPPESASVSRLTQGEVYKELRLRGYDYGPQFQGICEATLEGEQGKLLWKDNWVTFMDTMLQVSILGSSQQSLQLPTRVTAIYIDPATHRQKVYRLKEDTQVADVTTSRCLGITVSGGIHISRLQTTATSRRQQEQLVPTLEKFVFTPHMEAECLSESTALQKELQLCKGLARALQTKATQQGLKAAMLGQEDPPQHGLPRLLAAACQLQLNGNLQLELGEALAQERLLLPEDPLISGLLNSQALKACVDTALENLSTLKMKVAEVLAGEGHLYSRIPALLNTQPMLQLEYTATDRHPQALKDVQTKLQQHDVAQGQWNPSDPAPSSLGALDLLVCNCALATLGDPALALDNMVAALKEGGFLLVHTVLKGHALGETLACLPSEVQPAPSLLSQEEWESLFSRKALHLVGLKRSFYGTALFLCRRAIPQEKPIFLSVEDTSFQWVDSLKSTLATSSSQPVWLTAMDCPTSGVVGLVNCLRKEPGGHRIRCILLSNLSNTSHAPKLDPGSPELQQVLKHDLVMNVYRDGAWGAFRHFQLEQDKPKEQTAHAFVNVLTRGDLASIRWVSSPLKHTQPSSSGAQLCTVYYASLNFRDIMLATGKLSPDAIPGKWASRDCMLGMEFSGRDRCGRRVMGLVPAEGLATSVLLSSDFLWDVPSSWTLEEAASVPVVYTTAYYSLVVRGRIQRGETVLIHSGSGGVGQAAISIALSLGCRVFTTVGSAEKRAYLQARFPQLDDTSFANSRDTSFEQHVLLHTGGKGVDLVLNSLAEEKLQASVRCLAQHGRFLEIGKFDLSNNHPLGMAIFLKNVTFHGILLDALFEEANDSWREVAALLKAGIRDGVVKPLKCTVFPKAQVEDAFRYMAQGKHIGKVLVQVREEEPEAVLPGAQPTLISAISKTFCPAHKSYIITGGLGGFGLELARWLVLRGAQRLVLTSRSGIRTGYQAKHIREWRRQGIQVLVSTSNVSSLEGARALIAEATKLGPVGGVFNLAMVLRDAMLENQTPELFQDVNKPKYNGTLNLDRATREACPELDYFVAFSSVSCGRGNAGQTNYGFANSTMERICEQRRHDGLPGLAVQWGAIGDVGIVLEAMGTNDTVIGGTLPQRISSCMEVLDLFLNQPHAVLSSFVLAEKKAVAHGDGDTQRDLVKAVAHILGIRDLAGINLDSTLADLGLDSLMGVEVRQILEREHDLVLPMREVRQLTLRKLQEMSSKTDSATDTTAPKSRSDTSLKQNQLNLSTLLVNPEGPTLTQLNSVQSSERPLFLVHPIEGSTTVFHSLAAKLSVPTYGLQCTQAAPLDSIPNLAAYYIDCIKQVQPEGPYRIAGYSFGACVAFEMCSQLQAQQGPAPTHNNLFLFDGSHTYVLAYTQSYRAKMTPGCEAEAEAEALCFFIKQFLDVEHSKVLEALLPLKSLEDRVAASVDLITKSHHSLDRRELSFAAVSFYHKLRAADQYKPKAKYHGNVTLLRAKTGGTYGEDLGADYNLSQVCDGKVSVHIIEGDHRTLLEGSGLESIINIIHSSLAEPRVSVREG
T1 sequence (Q9QXG4 whole entry): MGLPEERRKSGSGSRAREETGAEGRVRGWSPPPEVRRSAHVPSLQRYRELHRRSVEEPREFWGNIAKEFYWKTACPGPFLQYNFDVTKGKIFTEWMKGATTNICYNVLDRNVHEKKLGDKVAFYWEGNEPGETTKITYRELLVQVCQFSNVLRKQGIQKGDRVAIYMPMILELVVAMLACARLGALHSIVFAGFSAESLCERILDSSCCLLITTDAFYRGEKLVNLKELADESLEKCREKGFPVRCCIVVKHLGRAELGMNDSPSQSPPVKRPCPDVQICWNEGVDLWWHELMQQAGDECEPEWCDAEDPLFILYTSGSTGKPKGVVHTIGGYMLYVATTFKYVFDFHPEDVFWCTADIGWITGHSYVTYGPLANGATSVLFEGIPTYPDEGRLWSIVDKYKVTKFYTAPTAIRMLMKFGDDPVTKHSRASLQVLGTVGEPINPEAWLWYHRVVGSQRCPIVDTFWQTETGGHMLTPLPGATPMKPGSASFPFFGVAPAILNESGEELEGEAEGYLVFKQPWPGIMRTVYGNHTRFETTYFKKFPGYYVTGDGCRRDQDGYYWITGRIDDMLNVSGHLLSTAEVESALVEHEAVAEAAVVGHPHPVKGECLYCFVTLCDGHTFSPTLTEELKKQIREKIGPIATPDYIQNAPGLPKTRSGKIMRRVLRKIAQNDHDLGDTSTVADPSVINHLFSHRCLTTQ

Row | Acetyl-CoA Synthetase (Acetyl-CoA Synthetase) [% Control] | Citrate Lyase (Citrate Lyase) [% Control] | Acetyl-CoA Carboxylase (Acetyl-CoA Carboxylase) [% Control] | Fatty Acid Synthetase (Fatty Acid Synthetase) [% Control] | in vitro AcCoA synthetase (Acetyl-CoA Synthetase) [% Control] | SMILES | response vs control in vivo at 20 mg/kg/day (serum cholesterol; [1]) [%] | response vs control in vivo at 20 mg/kg/day (serum cholesterol; [2]) [%] | response vs control in vivo at 20 mg/kg/day (serum triglyceride; [3]) [%] | response vs control in vivo at 20 mg/kg/day (serum cholesterol; [4]) [%] | response vs control in vivo at 20 mg/kg/day (serum cholesterol; [5]) [%] | response vs control in vivo at 20 mg/kg/day (serum triglyceride; [6]) [%]
1 |  |  |  |  | 76 ± 8 | O=C(O)CCCCN1C(=O)c2ccccc2C1=O [5-N--phthalimidovaleric] |  |  |  | 83 ± 9 | 77 ± 4 | 54 ± 5
2 |  |  |  |  | 59 ± 9 | O=C(O)CCCCCN1C(=O)c2ccccc2C1=O [6-N--phthalimidocaproic acid] |  |  |  | 81 ± 6 | 67 ± 3 | 51 ± 12
3 |  |  |  |  | 82 ± 5 | CCN1C(=O)c2ccccc2C1=O [N--ethylphthalimide] |  |  |  | 83 ± 4 | 76 ± 2 | 87 ± 5
4 |  |  |  |  | 66 ± 12 | CN1C(=O)c2ccccc2C1=O [N--methylphthalimide] |  |  |  | 74 ± 4 | 74 ± 8 | 68 ± 8
5 |  |  |  |  | 71 ± 5 | CCCCCCCN1C(=O)c2ccccc2C1=O [N--n-heptylphthalimide] |  |  |  | 99 ± 7 | 72 ± 4 | 84 ± 6
6 |  |  |  |  | 71 ± 12 | CCCCCCN1C(=O)c2ccccc2C1=O [N--n-hexylphthalimide] |  |  |  | 96 ± 5 | 66 ± 4 | 84 ± 8
7 |  |  |  |  | 76 ± 7 | CCCCCCCCN1C(=O)c2ccccc2C1=O [N--n-octylphthalimide] |  |  |  | 101 ± 7 | 82 ± 3 | 77 ± 4
8 |  |  |  |  | 68 ± 6 | CCCCCN1C(=O)c2ccccc2C1=O [N--n-pentylphthalimide] |  |  |  | 76 ± 5 | 58 ± 3 | 75 ± 16
9 |  |  |  |  | 67 ± 3 | CCCN1C(=O)c2ccccc2C1=O [N--n-propylphthalimide] |  |  |  | 96 ± 4 | 74 ± 5 | 81 ± 9
10 |  |  |  |  | 83 ± 2 | CC(=O)OCCCCN1C(=O)c2ccccc2C1=O [N--phthalimidobutan-1-ol acetate] |  |  |  | 93 ± 9 | 66 ± 5 | 88 ± 7
11 |  |  |  |  | 81 ± 6 | CC(=O)OCCN1C(=O)c2ccccc2C1=O [N--phthalimidoethyl acetate] |  |  |  | 93 ± 13 | 95 ± 1 | 82 ± 7
12 |  |  |  |  | 62 ± 10 | CC(=O)OCN1C(=O)c2ccccc2C1=O [N--phthalimidomethyl acetate] |  |  |  | 61 ± 9 | 62 ± 4 | 57 ± 25
13 |  |  |  |  | 84 ± 2 | CC(=O)OCCCN1C(=O)c2ccccc2C1=O [N--phthalimidopropan-1-ol acetate] |  |  |  | 102 ± 4 | 66 ± 2 | 89 ± 9
14 |  |  |  |  | 78 ± 6 | O=C1NC(=O)c2ccccc21.[K] [potassium phthalimide] |  |  |  | 63 ± 6 | 78 ± 3 | 88 ± 4

Further lines, the compound ahead of its results:

Row | SMILES | Acetyl-CoA Synthetase (Acetyl-CoA Synthetase) [% Control] | Citrate Lyase (Citrate Lyase) [% Control] | Acetyl-CoA Carboxylase (Acetyl-CoA Carboxylase) [% Control] | Fatty Acid Synthetase (Fatty Acid Synthetase) [% Control] | in vitro AcCoA synthetase (Acetyl-CoA Synthetase) [% Control] | response vs control in vivo at 20 mg/kg/day (serum cholesterol; [1]) [%] | response vs control in vivo at 20 mg/kg/day (serum cholesterol; [2]) [%] | response vs control in vivo at 20 mg/kg/day (serum triglyceride; [3]) [%] | response vs control in vivo at 20 mg/kg/day (serum cholesterol; [4]) [%] | response vs control in vivo at 20 mg/kg/day (serum cholesterol; [5]) [%] | response vs control in vivo at 20 mg/kg/day (serum triglyceride; [6]) [%]
15 | O=C1NC(=O)c2cccc3cccc1c23 [1,8-Naphthalimide] | 63 ± 9 | 66 ± 6 | 106 ± 6 | 86 ± 8 |  | 81 ± 6 | 61 ± 7 | 87 ± 12 |  |  | 
16 | CC(=O)CCN1C(=O)c2cccc3cccc(c23)C1=O [1-N--(1,8-Naphthalimido)butan-3-one] | 88 ± 5 | 60 ± 5 | 59 ± 8 | 103 ± 4 |  | 94 ± 12 | 86 ± 9 | 54 ± 15 |  |  | 
17 | CC(=O)CCN1C(=O)c2ccccc2S1(=O)=O [1-N--(o-Benzosulfimido)butan-3-one] | 74 ± 9 | 47 ± 8 | 12 ± 3 | 104 ± 7 |  | 60 ± 8 | 62 ± 6 | 51 ± 7 |  |  | 
18 | CC(=O)CCN1C(=O)c2ccccc2C1=O [1-N--Phthalimidobutan-3-one] | 53 ± 12 | 34 ± 4 | 17 ± 3 | 109 ± 7 | 53 ± 12 | 67 ± 11 | 63 ± 7 | 58 ± 7 | 67 ± 11 | 63 ± 7 | 58 ± 7
19 | CC(=O)CCN1C(=O)CCC1=O [1-N--Succinimidobutan-3-one] | 58 ± 6 | 38 ± 7 | 100 ± 5 | 81 ± 7 |  | 90 ± 9 | 88 ± 7 | 79 ± 15 |  |  | 
20 | CC(=O)CCCCCN1C(=O)c2ccccc2C1=O [1-N--phthalimidoheptan-6-one] |  |  |  |  | 85 ± 3 |  |  |  | 71 ± 6 | 75 ± 12 | 88 ± 5
21 | CC(=O)CCCCN1C(=O)c2ccccc2C1=O [1-N--phthalimidohexan-5-one] |  |  |  |  | 68 ± 6 |  |  |  | 65 ± 9 | 65 ± 7 | 77 ± 5
22 | CC(=O)CCCN1C(=O)c2ccccc2C1=O [1-N--phthalimidopentan-4-one] |  |  |  |  | 62 ± 3 |  |  |  | 71 ± 6 | 63 ± 5 | 59 ± 13
23 | O=C(O)CN1C(=O)c2ccccc2C1=O [2-N--phthalimidoacetic acid] |  |  |  |  | 72 ± 12 |  |  |  | 76 ± 7 | 68 ± 7 | 72 ± 9
24 | O=C(O)CCCN1C(=O)c2ccccc2C1=O [4-N--phthalimidobutyric acid] |  |  |  |  | 64 ± 12 |  |  |  | 80 ± 7 | 68 ± 6 | 59 ± 14
